Experimental data from patent US10100041B2, “Pyrazolyl substituted tetrahydropyranylsulfones” (GRÜNENTHAL GMBH, priority 2015, dated 2018).

Target: T1, Human CaV2.2 channels (Homo sapiens, UniProt Q00975)
T1 construct: expressed in transfected cells
Assay: Fluorescence assay for CaV2.2 channels using potassium depolarization to induce channel opening (FLIPR, Fluo 4)
Type: cell-based
Settings: HEK293, 3 μM test compound; 30 mM KCl (alternative assay buffer, inactivated channel state); HEK293 cells; read-out: Activity Category: %-Inhib (CaV2.2) @3 μM @30 mM KCl
Description: In the process, the Ca^2+ influx is quantified in the FLIPR assay with the aid of a Ca^2+-sensitive dye (type Fluo-4, Molecular Probes Europe BV, Leiden, the Netherlands) in a fluorescent imaging plate reader (FLIPR 3, Molecular Devices, Sunnyvale, USA), as described hereinafter.
2.1 Fluorescence Assay for CaV2.2 Channels Using Potassium Depolarization to Induce Channel Opening
Human CaV2.2 channels were stably expressed in HEK293 cells together with alpha2-delta and beta subunits of voltage gated calcium channels. In addition, an inwardly rectifying potassium channel (Kir2.3) was stably expressed in these cells to augment control of the cell membrane potential by the concentration of extracellular potassium ions. Raise of the extracellular potassium concentration leads to depolarization of the membrane potential and thus regulates the voltage dependent state of CaV2.2 channels. For preparation, cells were seeded in black poly-D-lysine coated 96-well plates (Becton Dickinson, Biocoat 4640) in 100 μL medium [500 mL DMEM/F-12 plus Glutamax (Invitrogen 31331-093) plus 5.5 mL MEM NEAA 100× (Invitrogen 11140-035) plus 50 mL FBS decomplemented (Invitrogen 10270-106) plus 200 μg/mL Geneticin (Invitrogen 10131-027) plus 50 μg/mL Hygromycin B (Invitrogen 10687-010) plus 2 μg/mL Blasticidin (anti-b15b Invivo-Gen) plus 0.2 μg/mL Puromycin (A 11138-03)] at a cell density of 30.000 cells per well. Plates were incubated at 37° C. (5% CO2) for 20 to 23 h. On the day of experiment medium was discarded and cells were loaded with Fluo 4 by addition of 100 μL of basic assay buffer (10 mM HEPES, 1 mM KCl, 149 mM NaCl, 0.8 mM CaCl2, 1.7 mM MgCl2, 10 mM Glucose, 0.1% BSA. pH 7.4) containing 2 μM Fluo 4 (Molecular Probes; F-14201), 0.01% pluronic acid (Molecular Probes; P-6866) and 2.5 mM probenecid (Molecular Probes; P36400). Cells were incubated in the dark at 25° C. for 60 min. Then dye containing buffer was discarded and […] basic (1 mM KCl) or alternative (30 mM KCl) assay buffer was added. The alternative assay buffer contained altered concentrations of KCl (30 mM) and NaCl (120 mM) and was used in order to promote the inactivated channel state. After that 25 μL of basic or alternative assay buffer with or without test compound were added and cells were incubated again in the dark at 25° C. for 15 min. Fluorescence intensity was measured on a FLIPR 3 instrument (Molecular Devices Corp., Sunnyvale, Calif.) with excitation at 480 nm and emission at 535 nm. After continuously reading fluorescence for 30 sec, 50 μL of basic assay buffer containing 210 mM KCl (NaCl omitted) were added for depolarization. Peak fluorescent signal intensity was determined and the amplitude of the peak signal, normalized to base line, was used to measure channel inhibition by test compounds.

T1 sequence (Q00975 whole entry): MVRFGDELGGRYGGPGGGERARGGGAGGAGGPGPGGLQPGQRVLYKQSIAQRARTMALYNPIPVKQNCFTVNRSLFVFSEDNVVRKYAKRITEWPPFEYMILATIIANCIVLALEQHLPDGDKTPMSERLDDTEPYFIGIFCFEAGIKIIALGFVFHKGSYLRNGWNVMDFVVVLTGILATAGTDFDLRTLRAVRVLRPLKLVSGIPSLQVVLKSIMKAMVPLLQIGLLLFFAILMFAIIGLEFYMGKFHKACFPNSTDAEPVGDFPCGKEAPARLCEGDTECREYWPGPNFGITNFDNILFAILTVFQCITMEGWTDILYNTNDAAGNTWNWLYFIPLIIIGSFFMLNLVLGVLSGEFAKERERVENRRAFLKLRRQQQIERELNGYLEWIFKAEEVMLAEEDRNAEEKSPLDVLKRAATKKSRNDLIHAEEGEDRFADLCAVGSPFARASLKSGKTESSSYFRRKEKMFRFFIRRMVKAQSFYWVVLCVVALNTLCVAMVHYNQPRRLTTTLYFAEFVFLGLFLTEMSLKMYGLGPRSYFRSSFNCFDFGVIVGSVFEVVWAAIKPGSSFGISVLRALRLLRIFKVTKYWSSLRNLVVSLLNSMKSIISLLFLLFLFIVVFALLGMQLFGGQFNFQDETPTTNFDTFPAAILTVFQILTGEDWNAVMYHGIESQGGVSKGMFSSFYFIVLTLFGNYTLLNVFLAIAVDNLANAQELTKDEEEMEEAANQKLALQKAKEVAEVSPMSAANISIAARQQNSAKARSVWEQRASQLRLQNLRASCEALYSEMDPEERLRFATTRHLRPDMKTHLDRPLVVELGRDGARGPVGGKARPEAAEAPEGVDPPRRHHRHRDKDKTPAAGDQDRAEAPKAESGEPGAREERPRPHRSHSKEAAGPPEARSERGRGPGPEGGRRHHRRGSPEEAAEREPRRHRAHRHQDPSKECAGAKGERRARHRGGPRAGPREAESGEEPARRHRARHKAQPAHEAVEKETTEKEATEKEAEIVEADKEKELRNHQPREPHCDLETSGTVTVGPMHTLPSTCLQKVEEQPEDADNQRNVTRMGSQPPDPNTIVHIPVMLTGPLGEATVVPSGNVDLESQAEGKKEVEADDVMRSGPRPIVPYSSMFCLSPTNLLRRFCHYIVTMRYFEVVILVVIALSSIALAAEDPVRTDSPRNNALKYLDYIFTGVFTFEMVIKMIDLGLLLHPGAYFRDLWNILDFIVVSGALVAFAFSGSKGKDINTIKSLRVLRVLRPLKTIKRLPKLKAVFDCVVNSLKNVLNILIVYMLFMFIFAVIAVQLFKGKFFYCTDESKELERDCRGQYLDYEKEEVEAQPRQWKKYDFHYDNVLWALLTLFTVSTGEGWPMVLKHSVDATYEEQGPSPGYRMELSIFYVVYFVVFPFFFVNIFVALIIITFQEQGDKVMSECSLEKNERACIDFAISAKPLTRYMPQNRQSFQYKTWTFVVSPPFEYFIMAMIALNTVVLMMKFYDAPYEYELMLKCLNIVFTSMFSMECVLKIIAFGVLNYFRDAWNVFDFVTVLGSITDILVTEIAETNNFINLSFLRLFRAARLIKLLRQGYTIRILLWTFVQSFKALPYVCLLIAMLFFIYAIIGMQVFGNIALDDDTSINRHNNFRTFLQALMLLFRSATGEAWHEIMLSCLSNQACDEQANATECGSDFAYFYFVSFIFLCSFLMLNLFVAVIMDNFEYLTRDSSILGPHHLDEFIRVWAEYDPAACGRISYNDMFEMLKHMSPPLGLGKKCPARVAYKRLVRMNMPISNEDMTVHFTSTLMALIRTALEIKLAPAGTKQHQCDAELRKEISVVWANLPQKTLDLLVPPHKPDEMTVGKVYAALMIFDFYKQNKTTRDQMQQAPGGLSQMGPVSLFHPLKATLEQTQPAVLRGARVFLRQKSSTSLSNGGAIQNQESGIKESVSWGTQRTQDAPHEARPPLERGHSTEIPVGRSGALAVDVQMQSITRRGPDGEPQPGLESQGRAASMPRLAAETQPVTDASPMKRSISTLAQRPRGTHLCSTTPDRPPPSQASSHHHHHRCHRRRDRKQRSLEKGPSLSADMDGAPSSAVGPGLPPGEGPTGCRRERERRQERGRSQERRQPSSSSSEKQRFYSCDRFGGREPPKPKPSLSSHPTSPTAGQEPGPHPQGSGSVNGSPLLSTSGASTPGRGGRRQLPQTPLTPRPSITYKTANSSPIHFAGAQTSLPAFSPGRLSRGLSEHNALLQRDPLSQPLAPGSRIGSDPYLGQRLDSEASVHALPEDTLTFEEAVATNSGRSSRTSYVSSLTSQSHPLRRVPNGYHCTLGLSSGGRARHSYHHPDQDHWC

SMILES	inhibition at 3 µM
COCn1nc(C(F)(F)F)cc1C1CC(C)(S(=O)(=O)c2cccc(C(F)(F)F)c2)CCO1 (stereo not drawn) [Example 21 cis-EN1, 1-(Methoxymethyl)-5-[4-methyl-4-[[3-(trifluoromethyl)phenyl]sulfonyl]-tetrahydro-pyran-2-yl]-3-(trifluoromethyl)-1H-pyrazole]	> 95%
CC1(S(=O)(=O)c2cccc(C(F)(F)F)c2)CCOC(c2cc(C(F)(F)F)nn2C2CS(=O)(=O)C2)C1 (stereo not drawn) [Example 20 cis-EN1, 3-[5-[4-Methyl-4-[[3-(trifluoromethyl)phenyl]sulfonyl]-tetrahydro-pyran-2-yl]-3-(trifluoromethyl)-1H-pyrazol-1-yl]-thietane-1,1-dioxide]	75 to 95%
CC1(S(=O)(=O)c2cccc(C(F)(F)F)c2)CCOC(c2cc(C(F)(F)F)nn2CC(N)=O)C1 (stereo not drawn) [Example 11 cis-EN1, 2-[5-[4-Methyl-4-[[3-(trifluoromethyl)phenyl]sulfonyl]-tetrahydro-pyran-2-yl]-3-(trifluoromethyl)-1H-pyrazol-1-yl]-acetamide]	75 to 95%
CC(C)(C(N)=O)n1nc(C(F)(F)F)cc1C1CC(C)(S(=O)(=O)c2cccc(C(F)(F)F)c2)CCO1 (stereo not drawn) [Example 26 cis-EN1, 2-Methyl-2-[5-[4-methyl-4-[[3-(trifluoromethyl)phenyl]sulfonyl]-tetrahydro-pyran-2-yl]-3-(trifluoromethyl)-1H-pyrazol-1-yl]-propionamide]	> 95%
CC(C)(CO)n1nc(C(F)(F)F)cc1C1CC(C)(S(=O)(=O)c2cccc(C(F)(F)F)c2)CCO1 (stereo not drawn) [Example 6 cis-EN1, 2-Methyl-2-[5-[4-methyl-4-[[3-(trifluoromethyl)phenyl]sulfonyl]-tetrahydro-pyran-2-yl]-3-(trifluoromethyl)-1H-pyrazol-1-yl]-propan-1-ol]	75 to 95%
